Values quoted from earlier work as cited in patent US8329872B2, “Drug monitoring assay” (Novartis AG, priority 2007, dated 2012).

Molecular target: classical and novel protein kinase C (PKC) isoforms

- ki values: in the nM range
SMILES: CN1CCN(c2nc(C3=C(c4c[nH]c5ccccc45)C(=O)NC3=O)c3ccccc3n2)CC1 [AEB071]
